Source: PubChem BioAssay (NCI)
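Following 48 hours of exposure in 96-well plates, responses at five concentrations were used to interpolate endpoints linearly. GI50 is the concentration that inhibits growth by half. TGI is the concentration that stops growth completely.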

What was measured:
Assay in all cases: NCI-60 cell line screen, 48 h
786-0 renal = tested on: 786-0 renal
A498 renal = tested on: A498 renal
A549 NSCLC = tested on: A549 NSCLC
ACHN renal = tested on: ACHN renal
BT-549 breast = tested on: BT-549 breast
CAKI-1 renal = tested on: CAKI-1 renal
CCRF-CEM leukemia = tested on: CCRF-CEM leukemia
COLO 205 colon = tested on: COLO 205 colon
DU-145 prostate = tested on: DU-145 prostate
EKVX NSCLC = tested on: EKVX NSCLC
HCC-2998 colon = tested on: HCC-2998 colon
HCT-116 colon = tested on: HCT-116 colon
HCT-15 colon = tested on: HCT-15 colon
HL-60(TB) leukemia = tested on: HL-60(TB) leukemia
HOP-62 NSCLC = tested on: HOP-62 NSCLC
HOP-92 NSCLC = tested on: HOP-92 NSCLC
HS 578T breast = tested on: HS 578T breast
HT29 colon = tested on: HT29 colon
IGROV1 ovarian = tested on: IGROV1 ovarian
KM12 colon = tested on: KM12 colon
LOX IMVI melanoma = tested on: LOX IMVI melanoma
M14 melanoma = tested on: M14 melanoma
MALME-3M melanoma = tested on: MALME-3M melanoma
MCF7 breast = tested on: MCF7 breast
MDA-MB-231 breast = tested on: MDA-MB-231 breast
MDA-MB-435 = tested on: MDA-MB-435
MOLT-4 leukemia = tested on: MOLT-4 leukemia
NCI-H226 lung = tested on: NCI-H226 lung
NCI-H23 lung = tested on: NCI-H23 lung
NCI-H460 lung = tested on: NCI-H460 lung
NCI-H522 lung = tested on: NCI-H522 lung
NCI/ADR-RES ovarian = tested on: NCI/ADR-RES ovarian
OVCAR-3 ovarian = tested on: OVCAR-3 ovarian
OVCAR-4 ovarian = tested on: OVCAR-4 ovarian
OVCAR-5 ovarian = tested on: OVCAR-5 ovarian
OVCAR-8 ovarian = tested on: OVCAR-8 ovarian
PC-3 prostate = tested on: PC-3 prostate
RPMI-8226 leukemia = tested on: RPMI-8226 leukemia
RXF 393 renal = tested on: RXF 393 renal
SF-268 CNS = tested on: SF-268 CNS
SF-295 CNS = tested on: SF-295 CNS
SF-539 CNS = tested on: SF-539 CNS
SK-MEL-2 melanoma = tested on: SK-MEL-2 melanoma
SK-MEL-28 melanoma = tested on: SK-MEL-28 melanoma
SK-MEL-5 melanoma = tested on: SK-MEL-5 melanoma
SK-OV-3 ovarian = tested on: SK-OV-3 ovarian
SN12C renal = tested on: SN12C renal
SNB-19 CNS = tested on: SNB-19 CNS
SNB-75 CNS = tested on: SNB-75 CNS
SR leukemia = tested on: SR leukemia
SW-620 colon = tested on: SW-620 colon
T-47D breast = tested on: T-47D breast
TK-10 renal = tested on: TK-10 renal
U251 CNS = tested on: U251 CNS
UACC-257 melanoma = tested on: UACC-257 melanoma
UACC-62 melanoma = tested on: UACC-62 melanoma
UO-31 renal = tested on: UO-31 renal

Oc1c(CN2CCC(N3CCOCC3)CC2)cc(Cc2cc(CN3CCC(N4CCOCC4)CC3)c(O)c3ncccc23)c2cccnc12
GI50 (786-0 renal): 1.07 µM | TGI (786-0 renal): 17.7 µM | GI50 (A498 renal): 3.74 µM | TGI (A498 renal): 13.9 µM | GI50 (A549 NSCLC): 1.62 µM | TGI (A549 NSCLC): 12.5 µM | GI50 (ACHN renal): 0.481 µM | TGI (ACHN renal): 12.9 µM | GI50 (BT-549 breast): 1.2 µM | TGI (BT-549 breast): 29 µM | GI50 (CAKI-1 renal): 0.643 µM | TGI (CAKI-1 renal): 21.2 µM | GI50 (CCRF-CEM leukemia): 0.337 µM | TGI (CCRF-CEM leukemia): > 100 µM | GI50 (COLO 205 colon): 0.596 µM | TGI (COLO 205 colon): 10.6 µM | GI50 (DU-145 prostate): 0.612 µM | TGI (DU-145 prostate): > 100 µM | GI50 (EKVX NSCLC): 0.737 µM | TGI (EKVX NSCLC): > 100 µM | GI50 (HCC-2998 colon): 1.52 µM | TGI (HCC-2998 colon): 13.5 µM | GI50 (HCT-116 colon): 0.383 µM | TGI (HCT-116 colon): 48.7 µM | GI50 (HCT-15 colon): 0.633 µM | TGI (HCT-15 colon): 26.4 µM | GI50 (HL-60(TB) leukemia): 0.789 µM | TGI (HL-60(TB) leukemia): 3.71 µM | GI50 (HOP-62 NSCLC): 0.356 µM | TGI (HOP-62 NSCLC): 18.4 µM | GI50 (HOP-92 NSCLC): 4.16 µM | TGI (HOP-92 NSCLC): 36.6 µM | GI50 (HS 578T breast): 10 µM | TGI (HS 578T breast): 48 µM | GI50 (HT29 colon): 0.709 µM | TGI (HT29 colon): 22.3 µM | GI50 (IGROV1 ovarian): 0.61 µM | TGI (IGROV1 ovarian): 48.2 µM | GI50 (KM12 colon): 0.428 µM | TGI (KM12 colon): > 100 µM | GI50 (LOX IMVI melanoma): 0.466 µM | TGI (LOX IMVI melanoma): 4.54 µM | GI50 (M14 melanoma): 0.61 µM | TGI (M14 melanoma): 17.1 µM | GI50 (MALME-3M melanoma): 4.22 µM | TGI (MALME-3M melanoma): 26.5 µM | GI50 (MCF7 breast): 0.543 µM | TGI (MCF7 breast): > 100 µM | GI50 (MDA-MB-231 breast): 0.27 µM | TGI (MDA-MB-231 breast): 5.03 µM | GI50 (MDA-MB-435): 2.01 µM | TGI (MDA-MB-435): 74.7 µM | GI50 (MOLT-4 leukemia): 0.49 µM | TGI (MOLT-4 leukemia): 12.1 µM | GI50 (NCI-H226 lung): 0.641 µM | TGI (NCI-H226 lung): 4.75 µM | GI50 (NCI-H23 lung): 2.07 µM | TGI (NCI-H23 lung): > 100 µM | GI50 (NCI-H460 lung): 0.471 µM | TGI (NCI-H460 lung): 16.6 µM | GI50 (NCI-H522 lung): 2.53 µM | TGI (NCI-H522 lung): 9.95 µM | GI50 (NCI/ADR-RES ovarian): 3.54 µM | TGI (NCI/ADR-RES ovarian): > 100 µM | GI50 (OVCAR-3 ovarian): 0.976 µM | TGI (OVCAR-3 ovarian): 11.9 µM | GI50 (OVCAR-4 ovarian): 0.434 µM | TGI (OVCAR-4 ovarian): > 100 µM | GI50 (OVCAR-5 ovarian): 2.14 µM | TGI (OVCAR-5 ovarian): > 100 µM | GI50 (OVCAR-8 ovarian): 1.57 µM | TGI (OVCAR-8 ovarian): 21.9 µM | GI50 (PC-3 prostate): 0.565 µM | TGI (PC-3 prostate): > 100 µM | GI50 (RPMI-8226 leukemia): 3.77 µM | TGI (RPMI-8226 leukemia): > 100 µM | GI50 (RXF 393 renal): 3.06 µM | TGI (RXF 393 renal): 18.7 µM | GI50 (SF-268 CNS): 0.343 µM | TGI (SF-268 CNS): 38.1 µM | GI50 (SF-295 CNS): 0.549 µM | TGI (SF-295 CNS): 3.13 µM | GI50 (SF-539 CNS): 1.11 µM | TGI (SF-539 CNS): 2.9 µM | GI50 (SK-MEL-2 melanoma): 4.64 µM | TGI (SK-MEL-2 melanoma): 30.3 µM | GI50 (SK-MEL-28 melanoma): 1.4 µM | TGI (SK-MEL-28 melanoma): 22.9 µM | GI50 (SK-MEL-5 melanoma): 1.59 µM | TGI (SK-MEL-5 melanoma): 5.11 µM | GI50 (SK-OV-3 ovarian): 0.758 µM | TGI (SK-OV-3 ovarian): 8.96 µM | GI50 (SN12C renal): 0.67 µM | TGI (SN12C renal): > 100 µM | GI50 (SNB-19 CNS): 0.67 µM | TGI (SNB-19 CNS): > 100 µM | GI50 (SNB-75 CNS): 2.57 µM | TGI (SNB-75 CNS): 38.2 µM | GI50 (SR leukemia): 0.593 µM | TGI (SR leukemia): 20.5 µM | GI50 (SW-620 colon): 0.689 µM | TGI (SW-620 colon): > 100 µM | GI50 (T-47D breast): 1.11 µM | TGI (T-47D breast): 17 µM | GI50 (TK-10 renal): 1.12 µM | TGI (TK-10 renal): 16.7 µM | GI50 (U251 CNS): 0.385 µM | TGI (U251 CNS): 17.6 µM | GI50 (UACC-257 melanoma): 3.62 µM | TGI (UACC-257 melanoma): 16.3 µM | GI50 (UACC-62 melanoma): 0.434 µM | TGI (UACC-62 melanoma): 5.29 µM | GI50 (UO-31 renal): 0.366 µM | TGI (UO-31 renal): 4.48 µM
